Experimental data reported in article PMC8152814, “The modulatory role of sulfated and non-sulfated small molecule heparan sulfate-glycomimetics in endothelial dysfunction: absolute structural clarification, molecular docking and simulated dynamics, SAR analyses and ADMET studies” (RSC Medicinal Chemistry, 2021).

What was measured:
eNOS = eNOS phosphorylation (Western blot) in FFA-stressed cells; assay type: cell-based, human; conditions: averaged % of increase (+) or decrease (−) compared to control (FFA induced oxidatively stressed endothelial cells), n = 3
From the text: (§1) The assays focused on the production of nitric oxide (NO) and the upregulation of nitric oxide synthase (eNOS), the production of reactive oxygen species (ROS) and the activity of nicotinamide adenine dinucleotide phosphate (NADPH) oxidase (Table 2). From the hypothesised model of heparan sulfate-glycomimetic activity,[17] the glycomimetics are proposed to attenuate the binding of HGF to the cMET receptor. This disruption to MET-receptor activation is proposed to modulate intracellular phosphorylation leading to an upregulation of eNOS and increased output of extracellular NO. […] Overall, the cross examination of NO output and reduction of ROS was used to determine the therapeutic action of the triaged glycomimetics α-4, R-10, S-10 and β-5, as well as 3 non-sulfated intermediates α-2, α-3 and β-3, on free fatty acid (FFA) induced, oxidatively stressed endothelial cell cultures (Table 2).
(§2) Biological assay and AMDET experimental details […]
(§3) Preparation of FFA-albumin complexes and cell treatments
To generate the in vitro model of oxidative stress, sodium palmitate was bound to bovine serum albumin (BSA) as outlined by Chavez and Summers,S2 with modifications. Sodium palmitate (FFA) was dissolved in EtOH at 60 °C and diluted 1:100 in M199 media supplemented with 2% fatty acid-free bovine serum albumin (BSA) and incubated for 1 h at 37 °C. HepG2 cells were treated with 1 μmol/L of the synthesized HS-glycomimetics in the presence of palmitate (100 μmol/L) for 3 h or pre-treated with glycomimetics for 12 h followed by 3 h palmitate (100 μmol/L). Control cells were incubated in serum free M199 containing 2% (wt/vol) fatty acid-free BSA. […]
HepG2 wells were lysed in RIPA buffer containing proteinase inhibitors and the total protein was quantified using BCA protein assay kit (Pierce Biotechnology). Proteins (30 μg/well) were denatured and separated by sodium dodecyl sulfate (SDS)-polyacrylamide gel electrophoresis and transferred to polyvinylidene difluoride (PVDF) membranes. Blots were blocked for 1 h in 5% semi-skimmed milk/Tris-Buffered Saline Tween-20 (TBS-T), probed with primary rabbit anti-phospho-protein kinase B (Akt), rabbit anti-Akt (Santa Cruz Biotechnology), rabbit polyclonal anti-phospho-eNOS (Cell Signaling) overnight at 4 °C followed by washing and incubation with the corresponding horse radish peroxidase-labelled secondary antibody for 1 h at room temperature. After washing with TBS-T, membranes were incubated with ECL reagent and visualized (Amersham Pharmacia Biotech). Densitometry analysis using ImageJ© (version 1.32j, NIH) was used to quantify the protein signal.S7 […]
(typically 0.01 M phosphate buffered saline pH 7.4) so that the final DMSO concentration is 1 % and the final test compound concentrations are 1, 3, 10, 30 and 100 µM. The experiment is performed at 37 °C and each concentration is incubated in 7 replicate wells. The plates are incubated for 2 h at 37 °C before the absorbance is measured at 620nm. Nicardipine (pH dependent) and pyrene (pH independent) are included as control compounds. The solubility is estimated from the concentration of test compound that produces an increase in absorbance above vehicle control (1% DMSO in buffer).

[1] = test system: reactive oxygen species (ROS); experiment: ROS production in FFA-stressed cells; assay type: cell-based, human; conditions: averaged % of increase (+) or decrease (−) compared to control (FFA induced oxidatively stressed endothelial cells), n = 3
From the text: as §1, §2, §3
To generate the in vitro model of oxidative stress, sodium palmitate was bound to bovine serum albumin (BSA) as outlined by Chavez and Summers,S2 with modifications. Sodium palmitate (FFA) was dissolved in EtOH at 60 °C and diluted 1:100 in M199 media supplemented with 2% fatty acid-free bovine serum albumin (BSA) and incubated for 1 h at 37 °C. HepG2 cells were treated with 1 μmol/L of the synthesized HS-glycomimetics in the presence of palmitate (100 μmol/L) for 3 h or pre-treated with glycomimetics for 12 h followed by 3 h palmitate (100 μmol/L). Control cells were incubated in serum free M199 containing 2% (wt/vol) fatty acid-free BSA.
NO release assay and Quantification of ROS production […]
The auto-fluorescence was subtracted from each value. Cells were incubated with 10 μmol/L of the fluorescent probe: 2′-7′-dichlorodihydrofluorescein diacetate (CM-H2DCFDA, Sigma) for 30 min at 37 °C, and the level of fluorescence was determined (excitation 490 nm; emission 540 nm) using a microplate reader (BioTek).
The level of NADPH-enhanced superoxide anions (O2•−) in HepG2 homogenates was determined by lucigenin-enhanced chemiluminescence.S4 Following the various treatment conditions, cells were homogenized in a buffer (20 mmol/L H2KPO4 and 1 mmol/L EDTA supplemented with aprotinin, leuprotinin, pepstatin and PMSF). The total protein quantified using the Bicinchoninic acid (BCA) assay (Pierce Biotechnology). To 50 μg of total protein, NADPH (100 μmol/L) was added in a total volume of 500 μL, with lucigenin (5 μmol/L) and was injected automatically. Activity was determined by measuring luminescence over 200 s in a scintillation counter (Lumat LB 9507, Berthold, Germany). Basal values of NADPH oxidase activity were subtracted from the experimental values and expressed as RLU/min/μg protein […]
In situ quantification of ROS species
Superoxide dismutase (SOD) and catalase (CAT) activity assays, and in situ detection of vascular ROS content. The activity of the enzymes, SOD and CAT, was determined in cell homogenates using assay kits according to the manufacturer's instructions (Cayman; Cat No 706002 and 707002 respectively). A unit of SOD was defined as the amount of enzyme […]
Similarly, a unit of CAT was […]
defined as the amount required to form 1.0 nmol of formaldehyde per min at 25 °C.S5 […]
HepG2 cells were incubated in serum-free DMEM containing 2% fatty acid-free BSA (control) or palmitate conjugated BSA (100 μmol/L) in the presence of HS-glycomimetics (1 or 10 μmol/L) for 24 h. The cells were incubated for 30 min in Hepes-buffered solution containing 10 μmol/L dihydroethidium (DHE), which intercalates with DNA in the presence of ROS and is detectable by fluorescence. Cells were counterstained with the nuclear stain DAPI at 0.3 μmol/L. In the following 24 h, the cell cultures were examined using a fluorescence microscope (Leica DMIRB). Sections were photographed and fluorescence was quantified using ImageJ. […]

[2] = Microsomal metabolic stability, rat liver microsomes; assay type: in vitro ADME; conditions: liver microsomes (pooled); for microsomal CLint at 3 µM / microsomal CLint at 0.75 h, 3 µM: pH 7.4; for half-life at 3 µM / half-life at 0.75 h, 3 µM: pH 7.4, 3 µM, 0.5 mg/mL protein, read-out: RLM t1/2
Method: Microsomal Metabolic Stability […]
the reaction. The final incubation volume is 50 µL. A minus cofactor control incubation is […]
NADPH (minus NADPH). Two control compounds are included with each species. All incubations are performed singularly for each test compound. Each compound is incubated for 0, 5, 15, 30 and 45 min. The control (minus NADPH) is incubated for 45 min. The reactions […]
Elimination rate constant (k) = (- gradient)
Intrinsic clearance (CLint)(µL/min/mg protein) = where V = Incubation volume (µL)/Microsomal protein (mg) […]
specified limits (if available).
(Molecular Devices LLC), which simultaneously performs electrophysiology measurements for […]
All cell suspensions, buffers and […]

| microsomal CLint at 3 µM [2] [µL/min/mg] | half-life at 3 µM [2] [h] | SMILES | eNOS phosphorylation (eNOS) | ROS production [1] [%] | microsomal CLint at 0.75 h, 3 µM [2] [µL/min/mg] | half-life at 0.75 h, 3 µM [2] [h] |
| --- | --- | --- | --- | --- | --- | --- |
| 0.649 | 35.7 | O=C([O-])c1cc(OC[C@H](COS(=O)(=O)[O-])OS(=O)(=O)[O-])ccc1OCC(COS(=O)(=O)[O-])OS(=O)(=O)[O-].[Na+].[Na+].[Na+].[Na+].[Na+] (mixture of isomers) [β-5, sodium 5-((R)-2,3-bis(sulfonatooxy)propoxy)-2-(2,3-bis(sulfonatooxy)propoxy)benzoate] | +318% | −29 | – | – |
| 9.56 | 2.42 | COC(=O)c1cc(OC[C@@H](COS(=O)(=O)[O-])OS(=O)(=O)[O-])ccc1OCC(COS(=O)(=O)[O-])OS(=O)(=O)[O-].[Na+].[Na+].[Na+].[Na+] (mixture of isomers) [α-4, sodium 3-(4-((S)-2,3-bis(sulfonatooxy)propoxy)-2-(methoxycarbonyl)phenoxy)propane-1,2-diyl bis(sulfate)] | +342% | −28 | – | – |
| – | – | COC(=O)c1cc(OC[C@@H](COS(=O)(=O)[O-])OS(=O)(=O)[O-])ccc1OCCCCOS(=O)(=O)[O-].[Na+].[Na+].[Na+] [Compound S-10, sodium (S)-3-(3-(methoxycarbonyl)-4-(4-(sulfonatooxy)butoxy)phenoxy)propane-1,2-diyl bis(sulfate)] | +397% | −39 | 12.8 | 1.82 |
| – | – | COC(=O)c1cc(OC[C@H](COS(=O)(=O)[O-])OS(=O)(=O)[O-])ccc1OCCCCOS(=O)(=O)[O-].[Na+].[Na+].[Na+] [Compound R-10, sodium (R)-3-(3-(methoxycarbonyl)-4-(4-(sulfonatooxy)butoxy)phenoxy)propane-1,2-diyl bis(sulfate)] | +613% | −23 | 4.11 | 5.63 |
